How the values were obtained:
[1] = tested on: C-32, A549, MDA-MB-231 and HFF-1 cells; test: Crystal violet, WST-1 and LDH assays of 3c; type: cell-based; conditions: 3c in medium above 0.3 µM, 72 h; particularly in A549 and MDA-MB-231 cells
Procedure: The effect of the compound on cell viability was determined using, in addition to the WST-1 assay, the crystal violet assay and the LDH (lactate dehydrogenase) assay. Furthermore, a wound healing test (indicator of cell proliferation and migration capacity) and assessment of gene expression (in the transcription phase) of BCL-2, BAX, TP53, P21, and H3 were performed.
An increase in the number of dead cells is shown by the absorbance line in the LDH test.
Cells were seeded in 96-well plates at 5000/well in 100 μL of medium. After 24 h of incubation, the medium was replaced with a new one with the addition of the test substance. […]
Crystal violet test: The crystal violet (Sigma-Aldrich, Darmstadt, Germany) test determines the relative number of cells based on the amount of dye bound to the DNA of cells in the culture. The absorbance measurement was performed at a wavelength of λ = 540 nm (reference wavelength λ = 690 nm).
WST-1 test: The WST-1 test (Roche Diagnostics, Mannheim, Germany) allows one to determine the relative number of cells in cultures. Absorbance is directly proportional to the number of cells and their metabolic activity. The absorbance measurement is performed at λ = 450 nm (reference wave 600 nm). […]

[2] = tested on: H3, BCL-2, BAX, P21, and P53 genes in C-32, A549, MDA-MB-231, and HFF-1 cells; test: Transcriptional activity by RT-QPCR; type: cell-based, human; conditions: 36 µM in medium, 24 h
Procedure: The study investigated the effect of compound 3c on the transcriptional activity of genes encoding a proliferation marker (histone H3), cell cycle regulators (P53 and P21), and genes encoding proteins involved in the mitochondrial apoptosis pathway (BCL-2 and BAX) in C-32, A549, MDA-MB-231, and HFF-1 cells. Cultures were exposed to 3c at a concentration of 36 µM in medium for 24 h.
The transcriptional activity of the following genes was assessed: H3 (a gene encoding histone H3, a proliferation marker), BCL-2 and BAX (genes encoding BCL-2 and BAX proteins, respectively; both are mitochondrial proteins associated with apoptosis), and P21 and P53 (cell cycle regulators). Activity was assessed by RT-QPCR using the CFX96 Touch Real-Time PCR Detection System (BIO-RAD Hercules, CA, USA) and a SensiFAST^TM SYBR^R No-ROX One-Step Kit (Meridian Bioscience, Memphis, TN, USA). Cultured cells were exposed (for 24 h) to the tested compounds (0.5 µg/mL). RNA was extracted using Quick-RNA™ MiniPrep kit columns (Zymo Research, Irvine, CA, USA). The extracted RNA was assessed qualitatively and quantitatively. The integrity of total RNA was checked by electrophoresis (1.2% agarose gel, EtBr), and the amount and purity of total RNA in the extracts was determined spectrophotometrically (HP8452A apparatus, Hewlett Packard, Waldbronn, Germany).

[3] = tested on: C-32, A549, MDA-MB-231 and HFF-1 cells; test: Wound healing assay; type: cell-based, human; conditions: 3 µM, 72 h after scratching, all cells
Procedure: Photographs of the cell culture (control and culture exposed to compound 3c at a concentration of 3 µM) were taken after scraping the bottom of the vessel with a pipette tip and then after 72 h of incubation (Figure 2). […] In control cultures, the cell-free surface of the vessel (scraped with a pipette tip) becomes overgrown with cells, while in cultures supplemented with medium containing 3 µM of compound 3c, empty spots are visible. In the case of A549 and MDA-MB-231 cells, entire cell-free regions are clearly visible.
The wound healing assay is a standard in vitro technique for examining collective cell migration in two dimensions. The test involves scratching the bottom of a vessel (wells of a culture plate) with a pipette tip and observing over time how quickly cells move to occupy a free surface under specific culture conditions. In the presented work, the observation was carried out after 72 h of culture. At t = 0, a scratch was made, the medium was replaced with fresh one with the addition of the test compound, and then the cultures were incubated for 72 h. The observation was carried out using an OLYMPUS IX 50 microscope (Tokyo, Japan) with a KERN camera (KERN & SOHN GmbH, Balingen, Germany), and an image analysis system with KERN software (BalanceConnection SCD-4.0 Pro) was used to analyze the observed changes.

C#CCN(C)S(=O)(=O)c1ccc(O)c2ncccc12 [3c, 8-Hydroxy-N-methyl-N-(prop-2-yn-1-yl)quinoline-5-sulfonamide]
cell number in cultures (cell viability and cytotoxicity assays) [1]: significant decrease in cell number | BCL-2/BAX ratio (ratio of gene copy numbers) [2]: in favor of BAX | transcriptional activity of P21 [2]: increase in the transcriptional activity | transcriptional activity of P53 [2]: increase in the transcriptional activity | H3 expression (proliferation marker) ([2]; all the cultures): reduction in H3 expression | proliferative activity and migration capacity (wound healing) [3]: reduction in proliferative activity and migration capacity

— PMC11396667, “Design, Synthesis, and Anticancer and Antibacterial Activities of Quinoline-5-Sulfonamides” (Molecules, 2024)
